Experimental data from patent publication US9090535B2, “Hydroxylated tricyclic compounds” (Nektar Therapeutics, priority 2010, dated 2015).
Counter-ions that a name gives are not always drawn. Like-named read-outs stand apart in the source and are kept apart here.

What was measured:
[1] = target: T1, human norepinephrine transporter (hNET) (Homo sapiens, UniProt P23975); assay: Binding affinity to human norepinephrine transporter (hNET), [3H]Nisoxetine displacement; details: membranes from MDCK cells expressing hNET, [3H]Nisoxetine 2 nM, read-out: NET binding, Ki
T1 construct: expressed in transfected cells; host or cells: MDCK cells
Description: The binding affinities of certain compounds disclosed herein to the hNET were measured using competitive radioligand displacement assays in membranes prepared from MDCK cells that express the human norepinephrine transporter. Competition binding experiments were conducted by incubating hNET membranes with [^3H] Nisoxetine (2 nM), in the presence of increasing concentrations of test compounds. Incubations were carried out at 4° C. for 60 minutes in buffer containing 50 mM Tris HCl, 120 mM NaCl and 5 mM KCl (pH 7.4). The binding reaction was terminated by rapid filtration, membranes were washed and membrane-bound radioactivity was measured using a scintillation counter. Non-specific binding was measured in the presence of excess (10 μM) clomipramine as the unlabelled ligand and this value was subtracted from the total binding to yield the specific binding at each test compound concentration.
IC50 values were obtained from non-linear regression analysis of concentration-versus specific binding plots. Ki values were calculated from the IC50 values using the Cheng Prusoff correction and experimentally determined […] values for the radioligand under these assay conditions.

[2] = target: T2, cloned human hERG channel (Homo sapiens, UniProt Q12809); assay: In vitro effect on hERG channels, whole-cell patch clamp in HEK cells; type: cell-based; details: 37 °C, read-out: IhERG, 0.1 HZ, IC50
T2 construct: expressed in transfected cells; host or cells: HEK cells
Description: Electrophysiological measurements of hERG current were made in vitro to assess the hERG block produced by certain compounds disclosed herein. hERG currents were measured in HEK cells expressing the cloned human hERG channel using the whole-cell variant of the patch clamp method. Experiments were performed at 37±1° C. An Axopatch 1-B amplifier (Axon Instruments, Foster City, Calif.) was used for whole-cell voltage clamping. Creation of voltage clamp pulses and data acquisition was controlled by a PC running pClamp software (version 9.2, Axon Instruments). After rupture of the cell membrane (entering whole-cell mode), current kinetics and amplitudes were allowed to stabilize for 3-5 minutes as the cell was dialyzed with internal solution and paced at 0.1 Hz. Cells were depolarized to +10 mV for 500 ms from a holding potential of −75 mV and peak hERG current was measured as the maximum outward deflection of the tail current elicited upon return to −40 mV (pacing rate=0.1 Hz). Four concentrations of each test compound were added to the cell in a cumulative manner starting with the lowest test concentration. Each cell served as its own control and data are presented as % reduction of current amplitude achieved in the presence of drug.
A nonlinear curve fitting routine was utilized to fit a three-parameter Hill equation to the results using MicroCal Origin, version 6.0 software. The equation was: […]

[3] = test system: sodium channels (sodium current INa) in rat dorsal root ganglion (DRG) cells; assay: Sodium channel assay, whole-cell patch clamp of sodium current in isolated DRG cells; type: cell-based
Excerpt: The effect of compounds disclosed herein on sodium channels may be evaluated in vitro to determine their blocking properties using the whole-cell patch clamp method in isolated cardiac (human atrial myocytes) and neuronal (rat dorsal root ganglion) cells. The example below refers to a sodium channel assay using neuronal cells.
Electrophysiologic patch clamp recordings of the sodium current in isolated rat dorsal root ganglion (DRG) cells were used to measure the sodium channel blocking properties of certain compounds disclosed herein. DRG cells were isolated according to the method of Blair and Bean (J Neurosci, 22: pp. 10277-10290, 2002) and plated on treated glass coverslips. For measuring the sodium current, cells were perfused with an external solution that consists of (in mmol/L): 115 TMA chloride, 10 NaCl, 5 CsCl, 1.8 CaCl2, 1.2 MgCl2, 10 HEPES, 11 dextrose, pH adjusted to 7.4 with TMA-OH. The chemical composition of the internal solution was (in mmol/L): 115 CsF, 20 CsCl, 10 NaF, 10 HEPES, 5 EGTA; pH adjusted to 7.2 with CsOH. Currents were measured using the whole-cell variant of the patch clamp method (Crumb & Clarkson, Biophysical Journal, 57(3): 589, 1990). An Axopatch 1-B amplifier (Axon Instruments, Foster City, Calif.) was used for whole-cell voltage clamping. Creation of voltage clamp pulses and data acquisition were controlled by a PC running pClamp software (version 9.2, Axon Instruments). INa was elicited by a 40 ms pulse to −20 mV from a holding potential of −65 mV. Pacing rates of 0.1 and 3 Hz were examined. […]. Four concentrations of each test compound were added to the cell in a cumulative manner starting with the lowest test concentration. Each cell served as its own control and data are presented as % reduction of current amplitude achieved in the presence of drug. A nonlinear curve fitting routine was utilized to fit a three-parameter Hill equation to the results using MicroCal Origin, version 6.0 software. The equation was: […]

T1 sequence (P23975 whole entry): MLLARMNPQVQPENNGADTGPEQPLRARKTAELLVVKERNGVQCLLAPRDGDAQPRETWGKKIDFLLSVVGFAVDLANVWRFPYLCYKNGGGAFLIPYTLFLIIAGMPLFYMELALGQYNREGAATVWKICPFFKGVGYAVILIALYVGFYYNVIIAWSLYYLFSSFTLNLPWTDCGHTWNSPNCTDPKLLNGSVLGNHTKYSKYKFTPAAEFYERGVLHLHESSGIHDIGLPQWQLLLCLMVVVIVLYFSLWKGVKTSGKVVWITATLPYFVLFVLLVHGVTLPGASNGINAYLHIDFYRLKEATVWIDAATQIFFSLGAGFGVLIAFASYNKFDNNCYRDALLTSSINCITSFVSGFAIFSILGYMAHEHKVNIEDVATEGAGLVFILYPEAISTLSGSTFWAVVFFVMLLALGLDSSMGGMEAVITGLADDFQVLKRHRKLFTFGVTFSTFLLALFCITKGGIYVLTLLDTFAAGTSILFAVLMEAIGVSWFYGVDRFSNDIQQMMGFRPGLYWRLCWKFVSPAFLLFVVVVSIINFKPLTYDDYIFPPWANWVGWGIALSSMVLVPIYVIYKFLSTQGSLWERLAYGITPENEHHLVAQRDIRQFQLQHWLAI
T2 sequence (Q12809 whole entry): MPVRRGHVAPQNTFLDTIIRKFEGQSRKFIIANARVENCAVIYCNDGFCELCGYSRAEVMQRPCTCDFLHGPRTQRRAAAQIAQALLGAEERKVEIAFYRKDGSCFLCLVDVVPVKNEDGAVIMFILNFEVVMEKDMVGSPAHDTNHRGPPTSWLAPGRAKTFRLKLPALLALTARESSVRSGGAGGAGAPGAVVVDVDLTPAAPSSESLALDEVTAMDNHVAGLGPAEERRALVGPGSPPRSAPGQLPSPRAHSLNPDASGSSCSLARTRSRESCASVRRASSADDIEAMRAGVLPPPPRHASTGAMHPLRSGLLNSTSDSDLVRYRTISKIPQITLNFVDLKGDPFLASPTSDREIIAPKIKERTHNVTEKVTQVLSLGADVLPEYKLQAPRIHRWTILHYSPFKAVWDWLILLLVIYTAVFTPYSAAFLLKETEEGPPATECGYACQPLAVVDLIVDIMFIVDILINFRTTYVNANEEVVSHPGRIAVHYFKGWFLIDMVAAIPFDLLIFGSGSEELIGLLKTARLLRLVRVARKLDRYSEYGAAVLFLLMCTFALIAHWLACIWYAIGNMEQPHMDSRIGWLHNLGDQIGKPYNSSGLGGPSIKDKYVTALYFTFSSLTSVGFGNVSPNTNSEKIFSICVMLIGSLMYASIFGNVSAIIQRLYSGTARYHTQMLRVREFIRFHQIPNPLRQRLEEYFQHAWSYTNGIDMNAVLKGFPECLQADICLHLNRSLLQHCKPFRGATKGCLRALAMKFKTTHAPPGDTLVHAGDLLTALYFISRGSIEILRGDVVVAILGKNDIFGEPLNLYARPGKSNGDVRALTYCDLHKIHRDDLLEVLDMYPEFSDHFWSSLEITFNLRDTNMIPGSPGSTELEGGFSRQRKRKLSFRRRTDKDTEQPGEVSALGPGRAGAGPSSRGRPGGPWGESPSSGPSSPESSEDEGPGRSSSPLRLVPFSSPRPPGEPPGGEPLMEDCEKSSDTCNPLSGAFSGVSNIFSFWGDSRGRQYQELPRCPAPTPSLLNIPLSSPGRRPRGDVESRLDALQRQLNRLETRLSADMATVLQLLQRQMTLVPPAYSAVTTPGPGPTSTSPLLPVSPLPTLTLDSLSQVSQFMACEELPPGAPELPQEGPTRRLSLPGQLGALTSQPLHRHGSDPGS

| Ki ([1]; Table 2) [µM] | Ki ([1]; Table 1) [µM] | Molecule | IC50 ([2]; Table 2, pacing rate 0.1 Hz) [µM] | IC50 ([3]; Table 2, pacing rate 3 Hz) [µM] | IC50 ([2]; Table 1, pacing rate 0.1 Hz) [µM] | IC50 ([3]; Table 1, pacing rate 3 Hz) [µM] |
| --- | --- | --- | --- | --- | --- | --- |
| 28.1 |  | COCCOCCOCCOCCO[C@@H]1Cc2ccccc2/C(=C\CCN(C)C)c2ccccc21 [(R)-5-(3-dimethylamino-propylidene)-10-OmPEG4-10,11-dihydro-5H-dibenzo[a,d]cyclohept-E-ene trifluoroacetate salt] | 39.9 | 21.3 |  |  |
|  | 37.7 | 5-(3-Dimethylamino-propylidene)-10,11-dihydro-5H-dibenzo[a,d]cyclohept-Z-en-2-OmPEG6 hydrochloride salt |  |  | 8.1 | 12.4 |
|  | 60.8 | COCCOCCOCCOCCOc1ccc2c(c1)CCc1ccccc1/C2=C\CCN(C)C [5-(3-Dimethylamino-propylidene)-10,11-dihydro-5H-dibenzo[a,d]cyclohept-E-en-2-OmPEG4 hydrochloride salt] |  |  | 5.8 | 6.8 |
| 14.2 |  | COCCOCCOCCOCCOCCOCCO[C@H]1Cc2ccccc2/C(=C\CCN(C)C)c2ccccc21 [(S)-5-(3-dimethylamino-propylidene)-10-OmPEG6-10,11-dihydro-5H-dibenzo[a,d]cyclohept-E-ene trifluoroacetate salt] | 36 | 8.5 |  |  |
